Reference: the NIST ThermoML archive (doi:10.1016/j.jct.2017.11.011)
Numbers after ± are expanded uncertainties.

Columns and labels:
[1] = relative permittivity at various frequencies (dimensionless); xn = mol fraction of the nth substance listed; settings: 100 kPa, Liquid, Frequency=1 MHz, Parallel plate capacitor
[2] = relative permittivity at various frequencies (dimensionless); settings: 100 kPa, Liquid, Frequency=1 MHz, Parallel plate capacitor
[3] = 101.33 kPa, Liquid, Vibrating tube method

SMILES: CN(C)C=O [dimethylformamide] + Nc1ccccc1
- relative permittivity ([1]; 293.15 K, x1 = 1): 38.334 ± 1
- relative permittivity ([1]; 298.15 K, x1 = 1): 37.44 ± 1
- relative permittivity ([1]; 303.15 K, x1 = 1): 36.58 ± 1

SMILES: CN(C)C=O [dimethylformamide]
- relative permittivity ([2]; 293.15 K): 38.334 ± 1
- relative permittivity ([2]; 298.15 K): 37.44 ± 1
- relative permittivity ([2]; 303.15 K): 36.58 ± 1

SMILES: Nc1ccccc1 [aniline]
- relative permittivity ([2]; 293.15 K): 7.117 ± 0.47
- relative permittivity ([2]; 298.15 K): 6.984 ± 0.47
- relative permittivity ([2]; 303.15 K): 6.856 ± 0.47
- mass density ([3]; 293.15 K): 1021.79 ± 2.5 kg/m3
- mass density ([3]; 298.1 K): 1017.52 ± 2.4 kg/m3
- mass density ([3]; 303.15 K): 1013.19 ± 2.4 kg/m3

SMILES: Nc1ccccc1 [aniline] + CN(C)C=O
- relative permittivity ([1]; 293.15 K, x2 = 0): 7.117 ± 0.47
- relative permittivity ([1]; 293.15 K, x2 = 0.0533): 8.91 ± 0.53
- relative permittivity ([1]; 293.15 K, x2 = 0.1046): 10.653 ± 0.57
- relative permittivity ([1]; 293.15 K, x2 = 0.1562): 12.414 ± 0.61
- relative permittivity ([1]; 293.15 K, x2 = 0.2033): 14.004 ± 0.65
- relative permittivity ([1]; 293.15 K, x2 = 0.3015): 17.269 ± 0.71
- relative permittivity ([1]; 293.15 K, x2 = 0.4071): 20.625 ± 0.77
- relative permittivity ([1]; 293.15 K, x2 = 0.5013): 23.428 ± 0.82
- relative permittivity ([1]; 293.15 K, x2 = 0.5999): 26.184 ± 0.87
- relative permittivity ([1]; 293.15 K, x2 = 0.6989): 28.955 ± 0.91
- relative permittivity ([1]; 293.15 K, x2 = 0.7931): 31.604 ± 0.95
- relative permittivity ([1]; 293.15 K, x2 = 0.8431): 33.12 ± 0.97
- relative permittivity ([1]; 293.15 K, x2 = 0.8982): 34.833 ± 0.99
- relative permittivity ([1]; 293.15 K, x2 = 0.9459): 36.439 ± 1
- relative permittivity ([1]; 298.15 K, x2 = 0): 6.984 ± 0.47
- relative permittivity ([1]; 298.15 K, x2 = 0.0533): 8.729 ± 0.52
- relative permittivity ([1]; 298.15 K, x2 = 0.1046): 10.426 ± 0.56
- relative permittivity ([1]; 298.15 K, x2 = 0.1562): 12.144 ± 0.6
- relative permittivity ([1]; 298.15 K, x2 = 0.2033): 13.689 ± 0.64
- relative permittivity ([1]; 298.15 K, x2 = 0.3015): 16.874 ± 0.7
- relative permittivity ([1]; 298.15 K, x2 = 0.4071): 20.146 ± 0.77
- relative permittivity ([1]; 298.15 K, x2 = 0.5013): 22.895 ± 0.81
- relative permittivity ([1]; 298.15 K, x2 = 0.5999): 25.601 ± 0.86
- relative permittivity ([1]; 298.15 K, x2 = 0.6989): 28.31 ± 0.9
- relative permittivity ([1]; 298.15 K, x2 = 0.7931): 30.92 ± 0.94
- relative permittivity ([1]; 298.15 K, x2 = 0.8431): 32.402 ± 0.96
- relative permittivity ([1]; 298.15 K, x2 = 0.8982): 34.071 ± 0.98
- relative permittivity ([1]; 298.15 K, x2 = 0.9459): 35.62 ± 1
- relative permittivity ([1]; 303.15 K, x2 = 0): 6.856 ± 0.47
- relative permittivity ([1]; 303.15 K, x2 = 0.0533): 8.557 ± 0.52
- relative permittivity ([1]; 303.15 K, x2 = 0.1046): 10.2 ± 0.56
- relative permittivity ([1]; 303.15 K, x2 = 0.1562): 11.876 ± 0.6
- relative permittivity ([1]; 303.15 K, x2 = 0.2033): 13.383 ± 0.63
- relative permittivity ([1]; 303.15 K, x2 = 0.3015): 16.485 ± 0.7
- relative permittivity ([1]; 303.15 K, x2 = 0.4071): 19.678 ± 0.76
- relative permittivity ([1]; 303.15 K, x2 = 0.5013): 22.371 ± 0.8
- relative permittivity ([1]; 303.15 K, x2 = 0.5999): 25.026 ± 0.85
- relative permittivity ([1]; 303.15 K, x2 = 0.6989): 27.687 ± 0.89
- relative permittivity ([1]; 303.15 K, x2 = 0.7931): 30.246 ± 0.93
- relative permittivity ([1]; 303.15 K, x2 = 0.8431): 31.69 ± 0.95
- relative permittivity ([1]; 303.15 K, x2 = 0.8982): 33.315 ± 0.97
- relative permittivity ([1]; 303.15 K, x2 = 0.9459): 34.821 ± 0.99
